System: 966289-007-R4-J1-PDC complex spheroid viability
Test: Anticancer human tumor 966289-007-R4-J1-PDC patient-derived pancreatic adenocarcinoma cell line growth inhibition [GQUAD]
Details: for IC50: curve of first compound; for viability, T/C: stronger effect = lower value; active = viability on the fitted dose curve at most 10% of control; inactive = the rest
In short: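 Multi-cell-type spheroids of tumor cells with HUVEC and mesenchymal stem cells, treated with drug combinations. Concentrations descend in half-log steps from near clinical Cmax, or from 10 microM where Cmax is unknown; viability read-out.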

[1] = second compound 0.0316 µM, first compound 0.0316 µM
[2] = second compound 0.0316 µM, first compound 0.316 µM
[3] = second compound 0.1 µM, first compound 0.0316 µM
[4] = second compound 0.1 µM, first compound 0.316 µM
[5] = second compound 0.316 µM, first compound 0.0316 µM
[6] = second compound 0.316 µM, first compound 0.316 µM
[7] = second compound 1 µM, first compound 0.0316 µM
[8] = second compound 1 µM, first compound 0.316 µM
[9] = second compound 3.16 µM, first compound 0.0316 µM
[10] = second compound 3.16 µM, first compound 0.316 µM
[11] = second compound 10 µM, first compound 0.0316 µM
[12] = second compound 10 µM, first compound 0.316 µM
[13] = second compound 0.0316 µM, first compound 0.000999 µM
[14] = second compound 0.0316 µM, first compound 0.00316 µM
[15] = second compound 0.0316 µM, first compound 0.00999 µM
[16] = second compound 0.0316 µM, first compound 0.0999 µM
[17] = second compound 0.1 µM, first compound 0.000999 µM
[18] = second compound 0.1 µM, first compound 0.00316 µM
[19] = second compound 0.1 µM, first compound 0.00999 µM
[20] = second compound 0.1 µM, first compound 0.0999 µM
[21] = second compound 0.316 µM, first compound 0.000999 µM
[22] = second compound 0.316 µM, first compound 0.00316 µM
[23] = second compound 0.316 µM, first compound 0.00999 µM
[24] = second compound 0.316 µM, first compound 0.0999 µM
[25] = second compound 1 µM, first compound 0.000999 µM
[26] = second compound 1 µM, first compound 0.00316 µM
[27] = second compound 1 µM, first compound 0.00999 µM
[28] = second compound 1 µM, first compound 0.0999 µM
[29] = second compound 3.16 µM, first compound 0.000999 µM
[30] = second compound 3.16 µM, first compound 0.00316 µM
[31] = second compound 3.16 µM, first compound 0.00999 µM
[32] = second compound 3.16 µM, first compound 0.0999 µM
[33] = second compound 10 µM, first compound 0.000999 µM
[34] = second compound 10 µM, first compound 0.00316 µM
[35] = second compound 10 µM, first compound 0.00999 µM
[36] = second compound 10 µM, first compound 0.0999 µM
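Also: spheroids exposed to the agents for seven days before readout.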
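For viability, T/C in this document: percent viability relative to DMSO vehicle control wells taken as 100%.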

C=CC(=O)N1CCN(c2nc(=O)n(-c3c(C)ccnc3C(C)C)c3nc(-c4c(O)cccc4F)c(F)cc23)C(C)C1 (stereo unspecified) + Cc1[nH]c2ccc(F)cc2c1-c1nc2c3cccnc3c3ncccc3c2[nH]1
> 10000 nM: IC50 (second compound 0.0316 µM) | IC50 (second compound 0.1 µM) | IC50 (second compound 0.316 µM) | IC50 (second compound 1 µM) | IC50 (second compound 3.16 µM) | IC50 (second compound 10 µM)
inactive: viability, T/C [1] 99.9% | viability, T/C (second compound 0.0316 µM, first compound 0.1 µM) 94.1% | viability, T/C [2] 103% | viability, T/C (second compound 0.0316 µM, first compound 1 µM) 93.8% | viability, T/C (second compound 0.0316 µM, first compound 3.16 µM) 105% | viability, T/C (second compound 0.0316 µM, first compound 10 µM) 107% | viability, T/C [3] 105% | viability, T/C (second compound 0.1 µM, first compound 0.1 µM) 96.6% | viability, T/C [4] 103% | viability, T/C (second compound 0.1 µM, first compound 1 µM) 95.2% | viability, T/C (second compound 0.1 µM, first compound 3.16 µM) 102% | viability, T/C (second compound 0.1 µM, first compound 10 µM) 114% | viability, T/C [5] 97.4% | viability, T/C (second compound 0.316 µM, first compound 0.1 µM) 99.7% | viability, T/C [6] 90.3% | viability, T/C (second compound 0.316 µM, first compound 1 µM) 106% | viability, T/C (second compound 0.316 µM, first compound 3.16 µM) 104% | viability, T/C (second compound 0.316 µM, first compound 10 µM) 111% | viability, T/C [7] 95.4% | viability, T/C (second compound 1 µM, first compound 0.1 µM) 103% | viability, T/C [8] 105% | viability, T/C (second compound 1 µM, first compound 1 µM) 98.4% | viability, T/C (second compound 1 µM, first compound 3.16 µM) 86.1% | viability, T/C (second compound 1 µM, first compound 10 µM) 109% | viability, T/C [9] 101% | viability, T/C (second compound 3.16 µM, first compound 0.1 µM) 101% | viability, T/C [10] 111% | viability, T/C (second compound 3.16 µM, first compound 1 µM) 100% | viability, T/C (second compound 3.16 µM, first compound 3.16 µM) 108% | viability, T/C (second compound 3.16 µM, first compound 10 µM) 101% | viability, T/C [11] 99.2% | viability, T/C (second compound 10 µM, first compound 0.1 µM) 98% | viability, T/C [12] 104% | viability, T/C (second compound 10 µM, first compound 1 µM) 101% | viability, T/C (second compound 10 µM, first compound 3.16 µM) 94.4% | viability, T/C (second compound 10 µM, first compound 10 µM) 76.8%

CC[C@@]1(O)C(=O)OCc2c1cc1n(c2=O)Cc2cc3c(CN(C)C)c(O)ccc3nc2-1 + Cc1[nH]c2ccc(F)cc2c1-c1nc2c3cccnc3c3ncccc3c2[nH]1
active: viability, T/C [16] 0.88% | viability, T/C [2] 0.48% | viability, T/C [20] 0.6% | viability, T/C [4] 0.5% | viability, T/C [24] 0.88% | viability, T/C [6] 0.49% | viability, T/C [28] 0.78% | viability, T/C [8] 0.62% | viability, T/C [32] 0.9% | viability, T/C [10] 0.56% | viability, T/C [36] 0.71% | viability, T/C [12] 0.5%
inactive: viability, T/C [13] 102% | viability, T/C [14] 94.6% | viability, T/C [15] 90.2% | viability, T/C [1] 70.8% | viability, T/C [17] 99.3% | viability, T/C [18] 101% | viability, T/C [19] 101% | viability, T/C [3] 78.2% | viability, T/C [21] 94.1% | viability, T/C [22] 105% | viability, T/C [23] 110% | viability, T/C [5] 83.1% | viability, T/C [25] 92.4% | viability, T/C [26] 95% | viability, T/C [27] 106% | viability, T/C [7] 80.9% | viability, T/C [29] 105% | viability, T/C [30] 113% | viability, T/C [31] 115% | viability, T/C [9] 57.7% | viability, T/C [33] 105% | viability, T/C [34] 106% | viability, T/C [35] 108% | viability, T/C [11] 38.2%
49.2 nM: IC50 (second compound 1 µM)
50.2 nM: IC50 (second compound 0.316 µM)
25.9 nM: IC50 (second compound 10 µM)
36.9 nM: IC50 (second compound 3.16 µM)
44.6 nM: IC50 (second compound 0.0316 µM)
48 nM: IC50 (second compound 0.1 µM)

CCc1c2c(nc3ccc(O)cc13)-c1cc3c(c(=O)n1C2)COC(=O)[C@]3(O)CC + Cc1[nH]c2ccc(F)cc2c1-c1nc2c3cccnc3c3ncccc3c2[nH]1
inactive: viability, T/C [13] 20.7% | viability, T/C [17] 17.3% | viability, T/C [21] 15.4% | viability, T/C [25] 14.3%
< 0.999 nM: IC50 (second compound 0.0316 µM) | IC50 (second compound 0.1 µM) | IC50 (second compound 0.316 µM) | IC50 (second compound 1 µM) | IC50 (second compound 3.16 µM) | IC50 (second compound 10 µM)
active: viability, T/C [14] 0.77% | viability, T/C [15] 0.82% | viability, T/C [1] 0.49% | viability, T/C [16] 0.89% | viability, T/C [2] 0.5% | viability, T/C [18] 0.75% | viability, T/C [19] 0.91% | viability, T/C [3] 0.51% | viability, T/C [20] 0.52% | viability, T/C [4] 0.36% | viability, T/C [22] 0.9% | viability, T/C [23] 0.74% | viability, T/C [5] 0.45% | viability, T/C [24] 0.43% | viability, T/C [6] 0.36% | viability, T/C [26] 1.12% | viability, T/C [27] 0.71% | viability, T/C [7] 0.56% | viability, T/C [28] 0.34% | viability, T/C [8] 0.36% | viability, T/C [29] 9.81% | viability, T/C [30] 1.09% | viability, T/C [31] 0.59% | viability, T/C [9] 0.67% | viability, T/C [32] 0.58% | viability, T/C [10] 0.4% | viability, T/C [33] 5.35% | viability, T/C [34] 1.12% | viability, T/C [35] 0.71% | viability, T/C [11] 0.43% | viability, T/C [36] 0.31% | viability, T/C [12] 0.38%

From PubChem BioAssay AID2060488 (Molecular Pharmacology Branch, DTP, NCI, 2025)
